Holding throughout (experiment): relative viability (nuclei count vs DMSO), 5 days (fraction); higher = more cells survive
Compound in the test “AZD8055 + Pemetrexed”: COc1ccc(-c2ccc3c(N4CCOC[C@@H]4C)nc(N4CCOC[C@@H]4C)nc3n2)cc1CO [AZD8055] + Nc1nc2[nH]cc(CCc3ccc(C(=O)N[C@@H](CCC(=O)O)C(=O)O)cc3)c2c(=O)[nH]1 [Pemetrexed] (partner 0.2 µM)
The method, boiled down: (§1)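 A single step with final 0.05% Triton X-100, 1% formaldehyde and 1 ug/ml Hoechst fixed the cells and stained nuclei 5 days after treatment. Lung cancer cell lines in 1536-well plates had been treated by pin tool the day after seeding with one drug alone or a fixed anchor-drug dose plus five library-drug doses (not always all listed) in √10 steps, and nuclei were counted on 4× images. Relative viability is the ratio of nuclei in treated wells to nuclei in vehicle wells, taken as the median of duplicate plates.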

Compound in the test “AZD8055 + Trametinib”: COc1ccc(-c2ccc3c(N4CCOC[C@@H]4C)nc(N4CCOC[C@@H]4C)nc3n2)cc1CO [AZD8055] + CC(=O)Nc1cccc(-n2c(=O)n(C3CC3)c(=O)c3c(Nc4ccc(I)cc4F)n(C)c(=O)c(C)c32)c1 [Trametinib] (partner 0.02 µM)
The method, boiled down:
as §1

Compound in the test “AZD8055 + Navitoclax”: COc1ccc(-c2ccc3c(N4CCOC[C@@H]4C)nc(N4CCOC[C@@H]4C)nc3n2)cc1CO [AZD8055] + CC1(C)CCC(c2ccc(Cl)cc2)=C(CN2CCN(c3ccc(C(=O)NS(=O)(=O)c4ccc(N[C@H](CCN5CCOCC5)CSc5ccccc5)c(S(=O)(=O)C(F)(F)F)c4)cc3)CC2)C1 [Navitoclax] (partner 0.5 µM)
The method, boiled down: as §1

Compound in the test “AZD8055 + Phenformin”: COc1ccc(-c2ccc3c(N4CCOC[C@@H]4C)nc(N4CCOC[C@@H]4C)nc3n2)cc1CO [AZD8055] + N=C(N)NC(=N)NCCc1ccccc1 [Phenformin] (partner 250 µM)
Put shortly:
as §1

Data on four cell lines can be found in the supplement of paper PMC10307832.

Consider HCC-827, for which the relative viability in the test with AZD8055 + Pemetrexed (first compound 0.01 µM) is 0.278; in the test with AZD8055 + Pemetrexed (first compound 0.03162 µM), 0.242; with AZD8055 + Pemetrexed (first compound 0.1 µM), 0.239; in the test with AZD8055 + Pemetrexed (first compound 0.3162 µM), 0.275; with AZD8055 + Pemetrexed (first compound 1 µM), 0.216; with AZD8055 + Trametinib (first compound 0.01 µM) it was 0.499. In addition, the relative viability was found to be 0.445 with AZD8055 + Trametinib (first compound 0.03162 µM); 0.364 with AZD8055 + Trametinib (first compound 0.1 µM); 0.264 with AZD8055 + Trametinib (first compound 0.3162 µM); 0.258 with AZD8055 + Trametinib (first compound 1 µM); 1.03 with AZD8055 + Navitoclax (first compound 0.01 µM); 0.991 with AZD8055 + Navitoclax (first compound 0.03162 µM). The relative viability was 1.03 with AZD8055 + Navitoclax (first compound 0.1 µM); 0.92 in the test with AZD8055 + Navitoclax (first compound 0.3162 µM); 0.456 with AZD8055 + Navitoclax (first compound 1 µM); 0.426 with AZD8055 + Phenformin (first compound 0.01 µM); 0.395 with AZD8055 + Phenformin (first compound 0.03162 µM); 0.416 in the test with AZD8055 + Phenformin (first compound 0.1 µM). The relative viability in the test with AZD8055 + Phenformin (first compound 0.3162 µM) was 0.349; with AZD8055 + Phenformin (first compound 1 µM), 0.288.

NCI-H3122: the relative viability with AZD8055 + Pemetrexed (first compound 0.01 µM) was 0.229; with AZD8055 + Pemetrexed (first compound 0.03162 µM), 0.228; with AZD8055 + Pemetrexed (first compound 0.1 µM), 0.231; in the test with AZD8055 + Pemetrexed (first compound 0.3162 µM), 0.227; in the test with AZD8055 + Pemetrexed (first compound 1 µM), 0.225; in the test with AZD8055 + Trametinib (first compound 0.01 µM), 0.227. For the same cell line, the relative viability was 0.195 with AZD8055 + Trametinib (first compound 0.03162 µM); 0.175 in the test with AZD8055 + Trametinib (first compound 0.1 µM); 0.119 in the test with AZD8055 + Trametinib (first compound 0.3162 µM); 0.0905 in the test with AZD8055 + Trametinib (first compound 1 µM); 1.13 with AZD8055 + Navitoclax (first compound 0.01 µM); 1.05 with AZD8055 + Navitoclax (first compound 0.03162 µM). Also, the relative viability amounted to 0.687 in the test with AZD8055 + Navitoclax (first compound 0.1 µM); 0.435 in the test with AZD8055 + Navitoclax (first compound 0.3162 µM); 0.348 in the test with AZD8055 + Navitoclax (first compound 1 µM); 0.444 in the test with AZD8055 + Phenformin (first compound 0.01 µM); 0.425 with AZD8055 + Phenformin (first compound 0.03162 µM); 0.428 with AZD8055 + Phenformin (first compound 0.1 µM). The values for the relative viability with AZD8055 + Phenformin (first compound 0.3162 µM) and in the test with AZD8055 + Phenformin (first compound 1 µM) were 0.233 and 0.204, respectively.

In the case of HOP-62, the relative viability came to 0.312 with AZD8055 + Pemetrexed (first compound 0.01 µM); 0.29 in the test with AZD8055 + Pemetrexed (first compound 0.03162 µM); 0.338 with AZD8055 + Pemetrexed (first compound 0.1 µM); 0.35 with AZD8055 + Pemetrexed (first compound 0.3162 µM); 0.242 with AZD8055 + Pemetrexed (first compound 1 µM); 0.423 in the test with AZD8055 + Trametinib (first compound 0.01 µM). Besides, the relative viability in the test with AZD8055 + Trametinib (first compound 0.03162 µM) amounted to 0.338; with AZD8055 + Trametinib (first compound 0.1 µM) it was 0.27; in the test with AZD8055 + Trametinib (first compound 0.3162 µM) it was 0.195; in the test with AZD8055 + Trametinib (first compound 1 µM) it was 0.194; with AZD8055 + Navitoclax (first compound 0.01 µM), 1.09; with AZD8055 + Navitoclax (first compound 0.03162 µM), 1.11. In addition, the relative viability turned out to be 1.17 in the test with AZD8055 + Navitoclax (first compound 0.1 µM); 0.75 with AZD8055 + Navitoclax (first compound 0.3162 µM); 0.594 with AZD8055 + Navitoclax (first compound 1 µM); 0.717 in the test with AZD8055 + Phenformin (first compound 0.01 µM); 0.628 with AZD8055 + Phenformin (first compound 0.03162 µM); 0.585 in the test with AZD8055 + Phenformin (first compound 0.1 µM). Moreover, the relative viability with AZD8055 + Phenformin (first compound 0.3162 µM) worked out at 0.462; with AZD8055 + Phenformin (first compound 1 µM), 0.294.

Regarding HCC-44, the relative viability with AZD8055 + Pemetrexed (first compound 0.01 µM) was 0.65; in the test with AZD8055 + Pemetrexed (first compound 0.03162 µM) it was 0.702; with AZD8055 + Pemetrexed (first compound 0.1 µM), 0.665; with AZD8055 + Pemetrexed (first compound 0.3162 µM) it was 0.655; with AZD8055 + Pemetrexed (first compound 1 µM), 0.673; with AZD8055 + Trametinib (first compound 0.01 µM), 0.994. The relative viability in the test with AZD8055 + Trametinib (first compound 0.03162 µM) came out at 1.16; with AZD8055 + Trametinib (first compound 0.1 µM), 0.907; in the test with AZD8055 + Trametinib (first compound 0.3162 µM) it was 0.802; in the test with AZD8055 + Trametinib (first compound 1 µM), 0.731; with AZD8055 + Navitoclax (first compound 0.01 µM), 0.985; with AZD8055 + Navitoclax (first compound 0.03162 µM) it was 0.891. Moreover, the relative viability amounted to 0.617 with AZD8055 + Navitoclax (first compound 0.1 µM); 0.41 in the test with AZD8055 + Navitoclax (first compound 0.3162 µM); 0.448 in the test with AZD8055 + Navitoclax (first compound 1 µM); 0.216 with AZD8055 + Phenformin (first compound 0.01 µM); 0.197 with AZD8055 + Phenformin (first compound 0.03162 µM); 0.132 with AZD8055 + Phenformin (first compound 0.1 µM). In addition, the relative viability worked out at 0.158 in the test with AZD8055 + Phenformin (first compound 0.3162 µM) and 0.128 with AZD8055 + Phenformin (first compound 1 µM).
